Results taken from ChEMBL document CHEMBL1124708, “Glycolipids as host resistance stimulators” (1990).
Several values for one entry are separate records, joined by “and”; a condition that tells them apart may be missing. Equal values may be shown once.

How the values were obtained:
Pseudomonas aeruginosa [1] = assay: Protective index against Pseudomonas aeruginosa after 40 mg/kg subcutaneous administration pretreated 250 mg/kg cytoxan intraperitoneal on day -4.; type: functional
Pseudomonas aeruginosa [2] = assay: (§1) No of CFU was determined that cause 50% lethality against Pseudomonas aeruginosa after 40 mg/kg sc administration; type: functional; settings: route subcutaneous
Mus musculus [3] = assay: protective index of Pseudomonas aeruginosa after 40 mg/kg im administration pretreated 250 mg/kg cytoxan ip on day -1; type: functional
Mus musculus [4] = assay: Protective index of Pseudomonas aeruginosa after 40 mg/kg sc administration pretreated 250 mg/kg cytoxan ip on day -7; type: functional
Mus musculus [5] = assay: Protective index of Pseudomonas aeruginosa after 40 mg/kg im administration pretreated 250 mg/kg cytoxan ip on day -1; type: functional
Mus musculus [6] = assay: Protective index of Pseudomonas aeruginosa after 40 mg/kg im administration pretreated 250 mg/kg cytoxan ip on day -2; type: functional
Mus musculus [7] = assay: Protective index of Pseudomonas aeruginosa after 4 mg/kg sc administration pretreated 250 mg/kg cytoxan ip; type: functional
[8] = (§2) Log value of the protective index was calculated; type: functional
Mus musculus [9] = assay: No of CFU was determined that cause 50% lethality against Pseudomonas aeruginosa after 40 mg/kg ip administration; type: functional; settings: route intraperitoneal
Mus musculus [10] = assay: Protective index of Pseudomonas aeruginosa after 40 mg/kg ip administration pretreated 250 mg/kg cytoxan ip on day -4.; type: functional
Mus musculus [11] = assay: Protective index of Pseudomonas aeruginosa after 40 mg/kg sc administration pretreated 250 mg/kg cytoxan ip on day -4.; type: functional
Mus musculus [12] = species on record: Mus musculus; assay: as §2; type: functional, organism-based
[13] = as §2
Mus musculus [14] = assay: Protective index Pseudomonas aeruginosa after 40 mg/kg sc administration pretreated 250 mg/kg cytoxan ip on day -4.; type: functional
Mus musculus [15] = assay: as §1; type: functional; settings: route subcutaneous

Compound: CC(=O)N[C@H]1C(O)O[C@@H](COC(=O)[C@H]2CC[C@@]3(C)C(=CC[C@H]4[C@@H]5CC[C@H]([C@H](C)CCCC(C)C)[C@@]5(C)CC[C@@H]43)C2)[C@@H](O)[C@@H]1O[C@@H](C)C(=O)N[C@@H](C)C(=O)N[C@@H](CCC(=O)O)C(N)=O (some centres not stated)
- PI (Pseudomonas aeruginosa [1]): 1000
- No. of Colony forming Units (Pseudomonas aeruginosa [2]): 16000

Compound: CC(C)CCCC(C)C1CCC2C3CC=C4CC(OCCCCCCCCSC5OC(CO)C(O)C(O)C5O)CCC4(C)C3CCC12C (configuration not stated)
- PI (Pseudomonas aeruginosa [1]): 0.58

Compound: COCC1OC(SCCCCCCOC2CCC3(C)C(=CCC4C3CCC3(C)C(C(C)CCCC(C)C)CCC43)C2)C(O)C(O)C1O (configuration not stated)
- PI (Pseudomonas aeruginosa [1]): 0.53

Compound: CC(=O)NC1C(SCCCCCCOC2CCC3(C)C(=CCC4C3CCC3(C)C(C(C)CCCC(C)C)CCC43)C2)OC(CO)C(O)C1O (stereo in doubt; form 1) [listing 1 of 2 here]
- PI (Pseudomonas aeruginosa [1]): 0.53 and 0.7
- No. of Colony forming Units (Pseudomonas aeruginosa [2]; 40 mg/kg): 5.67 and 7.5

Compound: CC(C)CCCC(C)[C@H]1CC[C@H]2C3CC=C4C[C@@H](OCCCCCCS[C@@H]5O[C@@H](CO)[C@@H](O)[C@H](O)[C@H]5O)CC[C@]4(C)[C@H]3CC[C@]12C (some centres not stated)
- PI (Mus musculus [3]): 2.29
- PI (Mus musculus [4]): 4.81
- PI (Mus musculus [5]): 2.29
- PI (Mus musculus [6]): 9.52
- PI (Mus musculus [7]): 2.59
- Log PI [8]: 4.02

Compound: CC(C)CCC[C@@H](C)[C@H]1CC[C@H]2[C@@H]3CC=C4C[C@@H](OCCCCCCS[C@@H]5O[C@@H](CO)[C@@H](O[C@@H]6O[C@@H](CO)[C@H](O)[C@H](O)[C@@H]6O)[C@H](O)[C@@H]5O)CC[C@]4(C)[C@H]3CC[C@]12C
- PI (Pseudomonas aeruginosa [1]): 3.5

Compound: CC(=O)NC1C(SCCCCCCOC2CCC3(C)C(=CCC4C3CCC3(C)C(C(C)CCCC(C)C)CCC43)C2)OC(CO)C(O)C1O (stereo in doubt; form 2) [listing 1 of 2 here]
- No. of Colony forming Units (Pseudomonas aeruginosa [2]; 40 mg/kg): 56.7 and 75

Compound: CC(C)CCCC(C)C1CCC2C3CC=C4CC(OCCCCCCSC5OCC(O)C(O)C5O)CCC4(C)C3CCC12C (configuration not stated)
- PI (Pseudomonas aeruginosa [1]): 1.01

Compound: CC(C)CCCC(C)[C@H]1CC[C@H]2C3CC=C4C[C@@H](OCCCCCCS[C@H]5O[C@@H](CO)[C@@H](O)[C@H](O)[C@H]5O)CC[C@]4(C)[C@H]3CC[C@]12C (some centres not stated)
- Log PI [8]: 1.53

Compound: CC(C)CCCC(C)[C@H]1CC[C@H]2C3CC=C4C[C@@H](OCCCCCCS[C@@H]5O[C@@H](CO)[C@@H](O)[C@H](O)[C@@H]5O)CC[C@]4(C)[C@H]3CC[C@]12C (stereo in doubt; form 1) [listing 1 of 2 here]
- No. of Colony forming Units (Mus musculus [9]): 76
- PI (Mus musculus [10]): 4.75
- PI (Mus musculus [11]): 2.94
- PI (Pseudomonas aeruginosa [1]): 0.53 and 0.94
- No. of Colony forming Units (Pseudomonas aeruginosa [2]; 40 mg/kg): 56.7 and 47 and 101

Compound: CC(C)CCCC(C)[C@H]1CC[C@H]2C3CC=C4C[C@@H](OCCCCCCS[C@@H]5O[C@@H](CO)[C@@H](O)[C@H](O)[C@@H]5O)CC[C@]4(C)[C@H]3CC[C@]12C (stereo in doubt; form 2)
- Log PI (Mus musculus [12]): 0
- Log PI [13]: 0

Compound: CC(=O)NC1C(SCCCCCCOC2CCC3(C)C(=CCC4C3CCC3(C)C(C(C)CCCC(C)C)CCC43)C2)OC(CO)C(O)C1O (stereo in doubt; form 2) [listing 2 of 2 here]
- Log PI [8]: 0

Compound: CC(C)CCOC(=O)C1CCC2C3CC=C4CC(OCCCCCCSC5OC(CO)C(O)C(O)C5O)CCC4(C)C3CCC12C (configuration not stated)
- PI (Pseudomonas aeruginosa [1]): 1.01

Compound: CC(=O)N[C@@H]1C(O)O[C@@H](CO)[C@@H](O)[C@@H]1O[C@@H](C)C(=O)N[C@@H](C)C(=O)N[C@@H](CCC(=O)O)C(N)=O (some centres not stated)
- PI (Mus musculus [14]): 1.87 and 1.31
- PI (Mus musculus [15]): 1.31
- Log PI [8]: 0.27

Compound: CC(C)CCCC(C)[C@H]1CC[C@H]2C3CC=C4C[C@@H](OCCCCCCS[C@@H]5O[C@@H](CO)[C@@H](O)[C@H](O)[C@@H]5O)CC[C@]4(C)[C@H]3CC[C@]12C (stereo in doubt; form 1) [listing 2 of 2 here]
- Log PI [8]: 0

Compound: CC(C)CCCC(C)C1CCC2C3CC=C4CC(OCCCCSC5OC(CO)C(O)C(O)C5O)CCC4(C)C3CCC12C (configuration not stated)
- PI (Pseudomonas aeruginosa [1]): 0.84

Compound: CC(C)CCCC(C)C1CCC2C3CC=C4CC(OCCCCCCSC5OC(CN)C(O)C(O)C5O)CCC4(C)C3CCC12C (configuration not stated)
- PI (Pseudomonas aeruginosa [1]): 0.98

Compound: CC(=O)NC1C(SCCCCCCOC2CCC3(C)C(=CCC4C3CCC3(C)C(C(C)CCCC(C)C)CCC43)C2)OC(CO)C(O)C1O (stereo in doubt; form 1) [listing 2 of 2 here]
- Log PI (Mus musculus [12]): 0
